# Measured values as given in patent US6358885B1, “Substituted phenylheterocyclic herbicides” (Mississippi State University, priority 1992, dated 2002).
# Columns and labels:
# Assay in all cases: Test G preemergence/postemergence greenhouse plant response rating 0 to 100
# [1] = system: common purslane; assay type: in vivo, Portulaca oleracea; conditions: 0 to 100 scale
# Text: (§1) Seeds, rhizomes, or plant parts of alfalfa (Medicago ativa), annual bluegrass (Poa annua), bermudagrass (Cynodon dactylon), broadleaf signalgrass (Brachiaria plantaginea), common purslane (Portulaca oleracea), common ragweed (Ambrosia elatior), […] (Paspalum dilatatum), goosegrass (Eleusine indica), guineagrass (Panicum maximum), […] exaltata), johnsongrass (Sorghum halepense), large crabgrass (Digitaria sanguinalis), peanut (Arachis hypoagaea), pitted morningglory (Ipomoea lacunosa), purple nutsedge (Cyperus rotundus), sandbur (Cenchrus echinatus), smooth crabgrass (Digitaria ischaemum) and yellow nutsedge (Cyperus esculentus) were planted into greenhouse pots containing greenhouse planting medium. Each pot contained only one plant species. The test compound was dissolved in a non-phytotoxic solvent and applied preemergence and/or postemergence to the plants. Preemergence applications were made within one day of planting the seeds or plant parts. Postemergence applications were applied when the plants were in the two to four leaf stage (three to twenty cm). Test chemicals were dissolved in a non-phytotoxic solvent and applied preemergence and postemergence to the plants. Untreated control plants and treated plants were placed in the greenhouse and visually evaluated for injury at 13 to 21 days after herbicide application. […] A dash (-) response indicates no test result.
# [2] = system: broadleaf signalgrass; assay type: in vivo, Brachiaria plantaginea; conditions: 0 to 100 scale
# Text: as §1
# [3] = system: dallisgrass; assay type: in vivo, Paspalum dilatatum; conditions: 0 to 100 scale
# Text: as §1
# [4] = system: sandbur; assay type: in vivo, Cenchrus echinatus; conditions: 0 to 100 scale
# Text: as §1
# [5] = system: common ragweed; assay type: in vivo, Ambrosia elatior; conditions: 0 to 100 scale
# Text: as §1
# [6] = system: guineagrass; assay type: in vivo, Panicum maximum; conditions: 0 to 100 scale
# Text: as §1
# [7] = system: itchgrass; assay type: in vivo, Rottboellia exaltata; conditions: 0 to 100 scale
# Text: as §1
# [8] = system: alfalfa; assay type: in vivo, Medicago ativa; conditions: 0 to 100 scale
# Text: as §1
# [9] = system: annual bluegrass; assay type: in vivo, Poa annua; conditions: 0 to 100 scale
# Text: as §1
# [10] = system: smooth crabgrass; assay type: in vivo, Digitaria ischaemum; conditions: 0 to 100 scale
# Text: as §1
# [11] = system: purple nutsedge; assay type: in vivo, Cyperus rotundus; conditions: Rate 125 g/ha, 0 to 100 scale
# Text: as §1
# [12] = system: pitted morningglory; assay type: in vivo, Ipomoea lacunosa; conditions: 0 to 100 scale
# Text: as §1
# [13] = system: johnsongrass; assay type: in vivo, Sorghum halepense; conditions: 0 to 100 scale
# Text: as §1
# [14] = system: large crabgrass; assay type: in vivo, Digitaria sanguinalis; conditions: 0 to 100 scale
# Text: as §1
# [15] = system: bermudagrass; assay type: in vivo, Cynodon dactylon; conditions: 0 to 100 scale
# Text: as §1
# [16] = system: goosegrass; assay type: in vivo, Eleusine indica; conditions: 0 to 100 scale
# Text: as §1
compound,measurement,setting,value
COC(=O)C(C)Oc1cc(-c2nn3c(c2Cl)CCCC3)c(F)cc1Cl (centres unmarked) [Compound 28],"Plant response rating, Cmn Purslane","[1]; POSTEMERGENCE, Rate 125 g/ha",30
same,"Plant response rating, Cmn Purslane","[1]; POSTEMERGENCE, Rate 250 g/ha",60
same,"Plant response rating, Cmn Purslane","[1]; PREEMERGENCE, Rate 125 g/ha",0
same,"Plant response rating, Cmn Purslane","[1]; PREEMERGENCE, Rate 250 g/ha",0
same,"Plant response rating, Brdlf Sgnlgrass","[2]; POSTEMERGENCE, Rate 125 g/ha",0
same,"Plant response rating, Brdlf Sgnlgrass","[2]; POSTEMERGENCE, Rate 250 g/ha",0
same,"Plant response rating, Brdlf Sgnlgrass","[2]; PREEMERGENCE, Rate 125 g/ha",0
same,"Plant response rating, Brdlf Sgnlgrass","[2]; PREEMERGENCE, Rate 250 g/ha",0
same,"Plant response rating, Dallisgrass","[3]; POSTEMERGENCE, Rate 125 g/ha",0
same,"Plant response rating, Dallisgrass","[3]; POSTEMERGENCE, Rate 250 g/ha",0
same,"Plant response rating, Dallisgrass","[3]; PREEMERGENCE, Rate 125 g/ha",0
same,"Plant response rating, Dallisgrass","[3]; PREEMERGENCE, Rate 250 g/ha",0
same,"Plant response rating, S. Sandbur","[4]; POSTEMERGENCE, Rate 125 g/ha",0
same,"Plant response rating, S. Sandbur","[4]; POSTEMERGENCE, Rate 250 g/ha",0
same,"Plant response rating, S. Sandbur","[4]; PREEMERGENCE, Rate 125 g/ha",0
same,"Plant response rating, S. Sandbur","[4]; PREEMERGENCE, Rate 250 g/ha",0
same,"Plant response rating, Cmn Ragweed","[5]; POSTEMERGENCE, Rate 125 g/ha",100
same,"Plant response rating, Cmn Ragweed","[5]; POSTEMERGENCE, Rate 250 g/ha",60
same,"Plant response rating, Cmn Ragweed","[5]; PREEMERGENCE, Rate 125 g/ha",0
same,"Plant response rating, Cmn Ragweed","[5]; PREEMERGENCE, Rate 250 g/ha",0
same,"Plant response rating, Guineagrass","[6]; POSTEMERGENCE, Rate 125 g/ha",0
same,"Plant response rating, Guineagrass","[6]; POSTEMERGENCE, Rate 250 g/ha",0
same,"Plant response rating, Guineagrass","[6]; PREEMERGENCE, Rate 125 g/ha",0
same,"Plant response rating, Guineagrass","[6]; PREEMERGENCE, Rate 250 g/ha",0
same,"Plant response rating, Itchgrass","[7]; POSTEMERGENCE, Rate 125 g/ha",0
same,"Plant response rating, Itchgrass","[7]; POSTEMERGENCE, Rate 250 g/ha",0
same,"Plant response rating, Itchgrass","[7]; PREEMERGENCE, Rate 125 g/ha",0
same,"Plant response rating, Itchgrass","[7]; PREEMERGENCE, Rate 250 g/ha",0
same,"Plant response rating, Alfalfa Var.","[8]; POSTEMERGENCE, Rate 125 g/ha",0
same,"Plant response rating, Alfalfa Var.","[8]; POSTEMERGENCE, Rate 250 g/ha",0
same,"Plant response rating, Alfalfa Var.","[8]; PREEMERGENCE, Rate 125 g/ha",0
same,"Plant response rating, Alfalfa Var.","[8]; PREEMERGENCE, Rate 250 g/ha",0
same,"Plant response rating, Ann Bluegrass","[9]; POSTEMERGENCE, Rate 125 g/ha",0
same,"Plant response rating, Ann Bluegrass","[9]; POSTEMERGENCE, Rate 250 g/ha",0
same,"Plant response rating, Ann Bluegrass","[9]; PREEMERGENCE, Rate 125 g/ha",0
same,"Plant response rating, Ann Bluegrass","[9]; PREEMERGENCE, Rate 250 g/ha",0
same,"Plant response rating, Smooth Crabgras","[10]; POSTEMERGENCE, Rate 125 g/ha",0
same,"Plant response rating, Smooth Crabgras","[10]; POSTEMERGENCE, Rate 250 g/ha",0
same,"Plant response rating, Smooth Crabgras","[10]; PREEMERGENCE, Rate 125 g/ha",0
same,"Plant response rating, Smooth Crabgras","[10]; PREEMERGENCE, Rate 250 g/ha",0
same,"Plant response rating, Purple Nutsedge",[11]; POSTEMERGENCE,0
same,"Plant response rating, Purple Nutsedge",[11]; PREEMERGENCE,0
same,"Plant response rating, Pit Morninglory","[12]; POSTEMERGENCE, Rate 125 g/ha",0
same,"Plant response rating, Pit Morninglory","[12]; POSTEMERGENCE, Rate 250 g/ha",0
same,"Plant response rating, Pit Morninglory","[12]; PREEMERGENCE, Rate 125 g/ha",0
same,"Plant response rating, Pit Morninglory","[12]; PREEMERGENCE, Rate 250 g/ha",0
same,"Plant response rating, Johnsongrass","[13]; POSTEMERGENCE, Rate 125 g/ha",0
same,"Plant response rating, Johnsongrass","[13]; POSTEMERGENCE, Rate 250 g/ha",0
same,"Plant response rating, Johnsongrass","[13]; PREEMERGENCE, Rate 125 g/ha",0
same,"Plant response rating, Johnsongrass","[13]; PREEMERGENCE, Rate 250 g/ha",0
same,"Plant response rating, Large Crabgrass","[14]; POSTEMERGENCE, Rate 125 g/ha",0
same,"Plant response rating, Large Crabgrass","[14]; POSTEMERGENCE, Rate 250 g/ha",0
same,"Plant response rating, Large Crabgrass","[14]; PREEMERGENCE, Rate 125 g/ha",0
same,"Plant response rating, Large Crabgrass","[14]; PREEMERGENCE, Rate 250 g/ha",0
same,"Plant response rating, Bermudagrass","[15]; POSTEMERGENCE, Rate 125 g/ha",0
same,"Plant response rating, Bermudagrass","[15]; POSTEMERGENCE, Rate 250 g/ha",0
same,"Plant response rating, Bermudagrass","[15]; PREEMERGENCE, Rate 125 g/ha",0
same,"Plant response rating, Bermudagrass","[15]; PREEMERGENCE, Rate 250 g/ha",0
same,"Plant response rating, Goosegrass","[16]; POSTEMERGENCE, Rate 125 g/ha",0
same,"Plant response rating, Goosegrass","[16]; POSTEMERGENCE, Rate 250 g/ha",0
same,"Plant response rating, Goosegrass","[16]; PREEMERGENCE, Rate 125 g/ha",0
same,"Plant response rating, Goosegrass","[16]; PREEMERGENCE, Rate 250 g/ha",0
